Square brackets hold non-standard residues; d marks the D form. Side chains are listed from the residue outwards. Peptide text beside a SMILES is read from it. * marks the point of attachment. Homopiperazine(4-amidino) = N=C(N)N1CCCN(*)CC1; d(hArg) = N=C(N)NCCCC[C@@H](N)C(=O)O; dAgb = N=C(N)NCC[C@@H](N)C(=O)O; dAgp = N=C(N)NC[C@@H](N)C(=O)O; dNle = CCCC[C@@H](N)C(=O)O; Api = NC1(C(=O)O)CCNCC1
How the values were obtained:
[1] = target: T1, mouse kappa opioid receptor (mKOR) (Mus musculus, UniProt P33534); assay: cell-based; conditions: for Emax: read-out: mKOR Efficacy(%)
T1 construct: Stimulation of Endogenous Mouse Kappa-Opioid Receptor in R1.G1 Cells; host or cells: R1.G1 mouse thymoma cells
T1 sequence (P33534 whole entry): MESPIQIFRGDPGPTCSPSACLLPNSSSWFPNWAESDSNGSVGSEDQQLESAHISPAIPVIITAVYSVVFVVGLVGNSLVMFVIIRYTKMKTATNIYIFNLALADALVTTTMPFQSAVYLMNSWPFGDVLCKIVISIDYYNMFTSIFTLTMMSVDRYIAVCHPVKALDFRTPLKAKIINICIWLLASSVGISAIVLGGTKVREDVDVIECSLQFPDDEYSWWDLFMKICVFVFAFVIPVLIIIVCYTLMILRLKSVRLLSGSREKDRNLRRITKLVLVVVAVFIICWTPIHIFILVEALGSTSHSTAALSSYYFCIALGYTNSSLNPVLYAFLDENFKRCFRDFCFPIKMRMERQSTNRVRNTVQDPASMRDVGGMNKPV

[2] = target: T2, human kappa opioid receptor (hKOR) (Homo sapiens, UniProt P41145); assay: cell-based; conditions: for Emax: HEK293, read-out: hKOR Efficacy(%)
T2 construct: expressed in transfected cells; host or cells: HEK-293 cells, transient transfection with Fugene6
T2 sequence (P41145 whole entry): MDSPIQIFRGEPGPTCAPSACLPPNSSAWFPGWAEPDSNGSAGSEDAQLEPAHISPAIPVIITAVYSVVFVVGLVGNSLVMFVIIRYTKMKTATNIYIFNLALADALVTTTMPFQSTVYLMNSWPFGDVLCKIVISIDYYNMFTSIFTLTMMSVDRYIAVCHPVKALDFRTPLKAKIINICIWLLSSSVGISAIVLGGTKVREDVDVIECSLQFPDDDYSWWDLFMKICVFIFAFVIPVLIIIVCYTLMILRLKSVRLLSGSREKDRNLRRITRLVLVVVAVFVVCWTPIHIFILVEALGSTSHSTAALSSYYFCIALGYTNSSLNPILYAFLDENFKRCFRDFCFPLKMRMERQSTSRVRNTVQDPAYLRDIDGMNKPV

SMILES	EC50 [1] [nM]	Emax [1] [%]	EC50 [2] [nM]	Emax [2] [%]
CC(C)C[C@@H](NC(=O)[C@@H](Cc1ccccc1)NC(=O)[C@H](N)Cc1ccccc1)C(=O)N[C@H](CCCN)C(=O)N1CCNC(C(=O)O)C1 (stereo partly drawn) [Compound (45), D-Phe-D-Phe-D-Leu-D-Orn-[ω(D/L-4-piperazine-2-carboxylic acid)]-OH]	0.197	102	0.15	93
CC(C)C[C@@H](NC(=O)[C@@H](Cc1ccccc1)NC(=O)[C@H](N)Cc1ccccc1)C(=O)N[C@H](CCCCN)C(=O)N1CCC2(CCN(C)C2=O)CC1 [Compound (26), D-Phe-D-Phe-D-Leu-D-Lys-[2-methyl-2,8-diazaspiro[4,5]decan-1-one amide]]	0.0194	86	0.0083	99
CC(C)C[C@@H](NC(=O)[C@@H](Cc1ccccc1)NC(=O)[C@H](N)Cc1ccccc1)C(=O)N[C@H](CCCN)C(=O)N1CCCNCC1 [Compound (56), D-Phe-D-Phe-D-Leu-D-Orn-[homopiperazine amide]]	0.08	100	0.22	–
CC(C)C[C@@H](NC(=O)[C@@H](Cc1ccccc1)NC(=O)[C@H](N)Cc1ccccc1)C(=O)N[C@H](CCCN)C(=O)N1CCC(CC(=O)O)CC1 [Compound (39), D-Phe-D-Phe-D-Leu-D-Orn-[4-carboxymethyl-piperidine]-OH]	0.08	97	0.12	99
CCCC[C@@H](NC(=O)[C@@H](Cc1ccccc1)NC(=O)[C@H](N)Cc1ccccc1)C(=O)N[C@H](CNC(=N)N)C(=O)N1CCCN(C(=N)N)CC1 [Compound (19), D-Phe-D-Phe-D-Nle-(β-amidino)D-Dap-[4-amidinohomopiperazine amide]] (H-[dF][dF][dNle][dAgp]-{Homopiperazine(4-amidino)})	2.15	99	–	–
CC(C)C[C@@H](NC(=O)[C@@H](Cc1ccccc1)NC(=O)[C@H](N)Cc1ccccc1)C(=O)N[C@H](CCCNC(C)C)C(=O)N1CCCNCC1 [Compound (61), D-Phe-D-Phe-D-Leu-(δ-iPr)D-Orn-[homopiperazine amide]]	0.033	96	0.07	98
CC(C)C[C@@H](NC(=O)[C@@H](Cc1ccccc1)NC(=O)[C@H](N)Cc1ccccc1)C(=O)N[C@H](CCCN)C(=O)N1CCOC(C(=O)O)C1 (stereo partly drawn) [Compound (90), D-Phe-D-Phe-D-Leu-D-Orn-[R/S-2-carboxymorpholine]-OH]	0.178	100	0.16	100
CC(C)C[C@@H](NC(=O)[C@@H](Cc1ccccc1)NC(=O)[C@H](N)Cc1ccccc1)C(=O)N[C@H](CCCCNC(=N)N)C(=O)N1CCCN(C(=N)N)CC1 [Compound (16), D-Phe-D-Phe-D-Leu-D-Har-[4-amidinohomopiperazine amide]] (H-[dF][dF][dL][d(hArg)]-{Homopiperazine(4-amidino)})	0.021	105	0.11	96
CC(C)C[C@@H](NC(=O)[C@@H](Cc1ccccc1)NC(=O)[C@H](N)Cc1ccccc1)C(=O)N[C@H](CCCCN)C(=O)N1CCN(c2ccccn2)CC1 [Compound (65), D-Phe-D-Phe-D-Leu-D-Lys-[1-(pyridin-2-yl)piperazine amide]]	0.0471	89	0.0059	100
CC(C)C[C@@H](NC(=O)[C@@H](Cc1ccccc1)NC(=O)[C@H](N)Cc1ccccc1)C(=O)N[C@H](CCCN)C(=O)N1CCC(CCCC(=O)O)CC1 [Compound (48), D-Phe-D-Phe-D-Leu-D-Orn-[4-(4-piperidinyl)-butanoic acid]-OH]	0.092	100	0.26	97
CC(C)C[C@@H](NC(=O)[C@@H](Cc1ccccc1)NC(=O)[C@H](N)Cc1ccccc1)C(=O)N[C@H](CCCCN)C(=O)NCc1ccc(C(F)(F)F)nc1 [Compound (72), D-Phe-D-Phe-D-Leu-D-Lys-[6-trifluoromethyl-3-aminomethylpyridine amide]]	0.485	85	0.0667	95
CC(C)C[C@@H](N)C(=O)N[C@H](CCCN)C(=O)N[C@H](CCCCNC(=O)[C@@H](CCCN)NC(=O)[C@@H](CC(C)C)NC(=O)[C@@H](Cc1ccccc1)NC(=O)[C@H](N)Cc1ccccc1)C(=O)O [Compound (83)]	0.05	91	–	–
CC(C)C[C@@H](NC(=O)[C@@H](Cc1ccccc1)NC(=O)[C@H](N)Cc1ccccc1)C(=O)N[C@H](CCCN)C(=O)N[C@H]1CN[C@H](C(=O)O)C1 [Compound (41), D-Phe-D-Phe-D-Leu-D-Orn-[(2S,4R)-4-amino-pyrrolidine-2-carboxylic acid]-OH]	50.6	87	–	–
CCCC[C@@H](NC(=O)[C@@H](Cc1ccccc1)NC(=O)[C@H](N)Cc1ccccc1)C(=O)N[C@H](CCCNC(=N)N)C(=O)N1CCC[C@@H]1C(=O)O [Compound (40), D-Phe-D-Phe-D-Nle-D-Arg-D-Pro-OH] (H-[dF][dF][dNle][dR][dP]-OH)	9.05	88	–	–
CC(C)C[C@@H](NC(=O)[C@@H](Cc1ccccc1)NC(=O)[C@H](N)Cc1ccccc1)C(=O)N[C@H](CCCN)C(=O)NCCCC[C@@H](NC(=O)[C@H](N)CCCN)C(=O)O [Compound (82)]	0.12	–	–	–
CC(C)C[C@@H](NC(=O)[C@@H](Cc1ccccc1)NC(=O)[C@H](N)Cc1ccccc1)C(=O)N[C@H](CCCN)C(=O)NC1CCN(CC(N)=O)CC1 [Compound (51), D-Phe-D-Phe-D-Leu-D-Orn-[4-amino-1-carboxymethyl-piperidine]-NH2]	1.97	93	–	–
CC(C)C[C@@H](NC(=O)[C@@H](Cc1ccccc1)NC(=O)[C@H](N)Cc1ccccc1)C(=O)N[C@H](CCCNC(C)C)C(=O)NC1(C(=O)O)CCN(C(=O)[C@@H](CCCNC(C)C)NC(=O)[C@@H](CC(C)C)NC(=O)[C@@H](Cc2ccccc2)NC(=O)[C@H](N)Cc2ccccc2)CC1 [Compound (86), 1N,4N-bis-[D-Phe-D-Phe-D-Leu-(iPr)D-Orn]-4-amino-4-carboxylic-piperidine]	56.7	77	–	–
CC(C)C[C@@H](NC(=O)[C@@H](Cc1ccccc1)NC(=O)[C@H](N)Cc1ccccc1)C(=O)N[C@H](CCNC(=N)N)C(=O)NC1(C(=O)O)CCN(C(=O)[C@@H](CCNC(=N)N)NC(=O)[C@@H](CC(C)C)NC(=O)[C@@H](Cc2ccccc2)NC(=O)[C@H](N)Cc2ccccc2)CC1 [Compound (88), 1N,4N-bis-(D-Phe-D-Phe-D-Leu-D-Nar)-4-amino-4-carboxylic piperidine] (H-[dF][dF][dL][dAgb][Api]([dAgb-dL-dF-dF])-OH)	13.8	76	–	–
CC(C)C[C@@H](NC(=O)[C@@H](Cc1ccccc1)NC(=O)[C@H](N)Cc1ccccc1)C(=O)N[C@H](CCCN)C(=O)N[C@@H]1CN[C@H](C(=O)O)C1 [Compound (42), D-Phe-D-Phe-D-Leu-D-Orn-[(2S,45)-4-amino-pyrrolidine-2-carboxylic acid]-OH]	3	96	–	–
CC(C)C[C@@H](NC(=O)[C@H](N)Cc1ccccc1)C(=O)N[C@H](CCCN)C(=O)N[C@H](CCCCNC(=O)[C@@H](CCCN)NC(=O)[C@@H](CC(C)C)NC(=O)[C@@H](Cc1ccccc1)NC(=O)[C@H](N)Cc1ccccc1)C(=O)O [Compound (84)]	0.34	85	–	–

Reference: patent US7713937B2, “Synthetic peptide amides and dimeric forms thereof” (Cara Therapeutics, Inc., priority 2006, dated 2010)
